Measurements as given in ChEMBL document CHEMBL5126594, “Entry inhibition of hepatitis B virus using cyclosporin O derivatives with peptoid side chain incorporation” (Bioorg Med Chem, 2022).
Square brackets hold non-standard residues; d marks the D form. Peptide text beside a SMILES is read from it. NMeL = CN[C@@H](CC(C)C)C(=O)O; NMeV = CN[C@H](C(=O)O)C(C)C; Nva = CCC[C@H](N)C(=O)O; Sar = CNCC(=O)O

What was measured:
Hepatitis B virus [1] = experiment: Antiviral activity against Hepatitis B virus infected in human HepG2 cells expressing NTCP assessed as inhibition of viral entry by measuring intracellular HBV DNA at 1 uM preincubated with compound for 2 hrs followed by viral infection and measured after 3 hrs by qPCR analysis relative to control; format: functional; details: time 5 hrs
Hepatitis B virus [2] = experiment: Antiviral activity against Hepatitis B virus infected in human HepG2 cells expressing NTCP assessed as inhibition of viral entry by measuring intracellular HBV DNA preincubated with compound for 2 hrs followed by viral infection and measured after 3 hrs by qPCR analysis; format: functional, organism-based
[3] = Cytotoxicity against human HepG2 cells assessed as reduction in cell viability incubated for 24 hrs by MTS assay; format: toxicity, cell-based; details: read-out: LC50
CYP1A2 = target: T1, CYP1A2 (Homo sapiens, UniProt P05177); experiment: Inhibition of human CYP1A2 at 10 uM preincubated for 10 mins followed by NADPH addition and measured after 20 mins by luciferin reagent based luminescence analysis; format: ADME; details: time 30 min
T1 sequence (P05177 whole entry): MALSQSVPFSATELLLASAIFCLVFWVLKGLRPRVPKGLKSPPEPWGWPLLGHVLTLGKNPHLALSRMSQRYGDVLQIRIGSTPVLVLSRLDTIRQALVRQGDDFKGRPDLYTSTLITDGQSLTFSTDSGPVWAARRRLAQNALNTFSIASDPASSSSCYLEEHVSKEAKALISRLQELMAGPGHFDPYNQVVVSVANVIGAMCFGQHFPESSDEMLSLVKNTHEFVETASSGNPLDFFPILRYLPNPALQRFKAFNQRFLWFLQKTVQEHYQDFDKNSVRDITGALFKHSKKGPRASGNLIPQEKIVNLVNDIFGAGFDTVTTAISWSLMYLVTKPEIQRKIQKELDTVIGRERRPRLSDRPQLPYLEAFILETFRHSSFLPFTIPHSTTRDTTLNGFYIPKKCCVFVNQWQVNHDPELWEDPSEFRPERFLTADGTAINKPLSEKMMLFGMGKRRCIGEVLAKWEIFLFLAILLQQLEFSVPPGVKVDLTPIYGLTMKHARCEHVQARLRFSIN

CYP2C19 = CYP2C19 (Homo sapiens, UniProt P33261); experiment: Inhibition of human CYP2C19 at 10 uM preincubated for 10 mins followed by NADPH addition and measured after 20 mins by luciferin reagent based luminescence analysis; format: ADME; details: time 30 min
CYP2D6 = CYP2D6 (Homo sapiens, UniProt P10635); experiment: Inhibition of human CYP2D6 at 10 uM preincubated for 10 mins followed by NADPH addition and measured after 20 mins by luciferin reagent based luminescence analysis; format: ADME; details: time 30 min
CYP2C9 = CYP2C9 (Homo sapiens, UniProt P11712); experiment: Inhibition of human CYP2C9 at 10 uM preincubated for 10 mins followed by NADPH addition and measured after 20 mins by luciferin reagent based luminescence analysis; format: ADME; details: time 30 min
Sequence of CYP2C9 (P11712 whole entry): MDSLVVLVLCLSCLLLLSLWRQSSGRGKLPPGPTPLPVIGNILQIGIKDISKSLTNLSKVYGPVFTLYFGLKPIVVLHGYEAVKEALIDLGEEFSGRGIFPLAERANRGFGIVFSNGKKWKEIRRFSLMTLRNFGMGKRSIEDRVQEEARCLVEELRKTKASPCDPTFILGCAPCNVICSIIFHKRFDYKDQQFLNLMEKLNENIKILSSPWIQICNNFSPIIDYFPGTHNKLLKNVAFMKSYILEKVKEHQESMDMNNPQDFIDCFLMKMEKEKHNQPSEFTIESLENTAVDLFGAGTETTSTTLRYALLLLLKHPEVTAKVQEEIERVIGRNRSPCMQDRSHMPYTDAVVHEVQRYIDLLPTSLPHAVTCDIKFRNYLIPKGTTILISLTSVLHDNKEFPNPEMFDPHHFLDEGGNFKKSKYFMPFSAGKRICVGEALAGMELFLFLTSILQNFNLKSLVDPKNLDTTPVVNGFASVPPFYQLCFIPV

Sequence of CYP2D6 (P10635 whole entry): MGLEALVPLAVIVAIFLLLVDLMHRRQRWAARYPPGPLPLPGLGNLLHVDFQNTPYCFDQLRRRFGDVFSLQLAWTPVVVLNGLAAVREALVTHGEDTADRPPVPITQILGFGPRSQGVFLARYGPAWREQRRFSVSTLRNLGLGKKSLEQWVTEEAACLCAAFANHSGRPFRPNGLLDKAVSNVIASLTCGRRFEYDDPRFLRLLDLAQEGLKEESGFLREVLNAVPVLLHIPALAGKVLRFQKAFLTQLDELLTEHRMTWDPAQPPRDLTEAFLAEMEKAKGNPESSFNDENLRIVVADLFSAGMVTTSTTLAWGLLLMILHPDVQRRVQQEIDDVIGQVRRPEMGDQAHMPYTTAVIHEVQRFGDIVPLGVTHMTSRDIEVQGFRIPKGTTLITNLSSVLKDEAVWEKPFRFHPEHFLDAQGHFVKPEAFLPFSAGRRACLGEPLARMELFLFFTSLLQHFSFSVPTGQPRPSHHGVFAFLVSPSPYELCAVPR
Sequence of CYP2C19 (P33261 whole entry): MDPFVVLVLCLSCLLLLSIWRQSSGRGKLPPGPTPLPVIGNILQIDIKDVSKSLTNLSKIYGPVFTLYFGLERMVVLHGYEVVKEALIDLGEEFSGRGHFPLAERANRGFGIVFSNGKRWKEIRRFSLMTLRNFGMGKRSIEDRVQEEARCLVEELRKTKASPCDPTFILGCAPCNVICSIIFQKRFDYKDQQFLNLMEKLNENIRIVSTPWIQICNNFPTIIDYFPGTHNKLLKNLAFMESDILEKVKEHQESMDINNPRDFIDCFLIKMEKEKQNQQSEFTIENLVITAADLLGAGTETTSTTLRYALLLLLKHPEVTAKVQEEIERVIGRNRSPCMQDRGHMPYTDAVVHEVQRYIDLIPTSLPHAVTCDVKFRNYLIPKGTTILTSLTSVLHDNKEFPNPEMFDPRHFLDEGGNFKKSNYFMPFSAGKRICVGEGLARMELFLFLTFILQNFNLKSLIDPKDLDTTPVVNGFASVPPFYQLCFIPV

Compound	inhibition at 1 µM (Hepatitis B virus [1])	also measured
CCC[C@@H]1NC(=O)[C@H](CC(C)C)N(C)C(=O)[C@H](CC(C)C)N(C)C(=O)[C@H](CC(C)C)N(C)C(=O)CN(C)C(=O)[C@@H](C)NC(=O)[C@@H](CCC(N)=O)NC(=O)[C@H](CC(C)C)N(C)C(=O)[C@H](C(C)C)NC(=O)[C@H](CC(C)C)N(C)C(=O)CN(C)C1=O	64%	
CCC[C@@H]1NC(=O)[C@H](CC(C)C)N(C)C(=O)[C@H](CC(C)C)N(C)C(=O)[C@H](CC(C)C)N(C)C(=O)[C@H](CC(C)C)N(C)C(=O)[C@@H](C)NC(=O)[C@@H](CCC(N)=O)NC(=O)[C@H](CC(C)C)N(C)C(=O)[C@H](C(C)C)NC(=O)CN(CCCCN)C(=O)CN(C)C1=O	71%	
CCC[C@@H]1NC(=O)[C@H](CC(C)C)N(C)C(=O)[C@H](CC(C)C)N(C)C(=O)CN(CCOC)C(=O)[C@H](CC(C)C)N(C)C(=O)[C@@H](C)NC(=O)[C@@H](CCC(N)=O)NC(=O)[C@H](CC(C)C)N(C)C(=O)[C@H](C(C)C)NC(=O)[C@H](CC(C)C)N(C)C(=O)CN(C)C1=O	52%	
CCC[C@@H]1NC(=O)[C@H](CC(C)C)N(C)C(=O)[C@H](CC(C)C)N(C)C(=O)[C@H](CC(C)C)N(C)C(=O)[C@H](CC(C)C)N(C)C(=O)[C@@H](C)NC(=O)[C@@H](CCC(N)=O)NC(=O)[C@H](CC(C)C)N(C)C(=O)[C@H](C(C)C)NC(=O)CN(CCOC)C(=O)CN(C)C1=O	67%	
CCC[C@@H]1NC(=O)[C@H](CC(C)C)N(C)C(=O)[C@H](CC(C)C)N(C)C(=O)[C@H](CC(C)C)N(C)C(=O)[C@H](CC(C)C)N(C)C(=O)[C@@H](C)NC(=O)[C@@H](CCC(N)=O)NC(=O)[C@H](CC(C)C)N(C)C(=O)[C@H](C(C)C)NC(=O)CN(CCC(=O)O)C(=O)CN(C)C1=O	61%	
CCC[C@@H]1NC(=O)[C@H](CC(C)C)N(C)C(=O)[C@H](CC(C)C)N(C)C(=O)[C@H](CC(C)C)N(C)C(=O)[C@H](CC(C)C)N(C)C(=O)[C@@H](C)NC(=O)[C@H](CCC(N)=O)NC(=O)[C@H](CC(C)C)N(C)C(=O)[C@H](C(C)C)NC(=O)CN(C)C(=O)CN(C)C1=O	86%	IC50 (Hepatitis B virus [2]): 0.44 µM
CCC[C@@H]1NC(=O)[C@H](CC(C)C)N(C)C(=O)[C@H](CC(C)C)N(C)C(=O)[C@H](CC(C)C)N(C)C(=O)CN(CC(C)C)C(=O)[C@@H](C)NC(=O)[C@@H](CCC(N)=O)NC(=O)[C@H](CC(C)C)N(C)C(=O)[C@H](C(C)C)NC(=O)[C@H](CC(C)C)N(C)C(=O)CN(C)C1=O	62%	
CCC[C@@H]1NC(=O)[C@H](CC(C)C)N(C)C(=O)[C@H](CC(C)C)N(C)C(=O)CN(CCC(=O)O)C(=O)[C@H](CC(C)C)N(C)C(=O)[C@@H](C)NC(=O)[C@@H](CCC(N)=O)NC(=O)[C@H](CC(C)C)N(C)C(=O)[C@H](C(C)C)NC(=O)[C@H](CC(C)C)N(C)C(=O)CN(C)C1=O	63%	
CCC[C@@H]1NC(=O)[C@H](CC(C)C)N(C)C(=O)[C@H](CC(C)C)N(C)C(=O)CN(CC(C)C)C(=O)[C@H](CC(C)C)N(C)C(=O)[C@@H](C)NC(=O)[C@@H](CCC(N)=O)NC(=O)[C@H](CC(C)C)N(C)C(=O)[C@H](C(C)C)NC(=O)[C@H](CC(C)C)N(C)C(=O)CN(C)C1=O	65%	
CCC[C@@H]1NC(=O)[C@H](CC(C)C)N(C)C(=O)[C@H](CC(C)C)N(C)C(=O)[C@H](CC(C)C)N(C)C(=O)CN(CCC(=O)O)C(=O)[C@@H](C)NC(=O)[C@@H](CCC(N)=O)NC(=O)[C@H](CC(C)C)N(C)C(=O)[C@H](C(C)C)NC(=O)[C@H](CC(C)C)N(C)C(=O)CN(C)C1=O	84%	IC50 (Hepatitis B virus [2]): 0.45 µM; CC50 at 24 h [3]: > 200 µM
CCC[C@@H]1NC(=O)[C@H](CC(C)C)N(C)C(=O)[C@H](CC(C)C)N(C)C(=O)[C@H](CC(C)C)N(C)C(=O)[C@H](CC(C)C)N(C)C(=O)[C@@H](C)NC(=O)[C@@H](CCC(N)=O)NC(=O)[C@H](CC(C)C)N(C)C(=O)[C@H](C(C)C)NC(=O)CN(CC(C)C)C(=O)CN(C)C1=O	85%	IC50 (Hepatitis B virus [2]): 0.42 µM
CCC[C@@H]1NC(=O)[C@H](CC(C)C)N(C)C(=O)[C@H](CC(C)C)N(C)C(=O)[C@H](CC(C)C)N(C)C(=O)[C@H](CC(C)C)N(C)C(=O)[C@@H](C)NC(=O)[C@@H](CCC(N)=O)NC(=O)[C@H](CC(C)C)N(C)C(=O)[C@H](C(C)C)NC(=O)CN(CCO)C(=O)CN(C)C1=O	66%	
CCC[C@@H]1NC(=O)[C@H](CC(C)C)N(C)C(=O)[C@H](CC(C)C)N(C)C(=O)CN(C)C(=O)[C@H](CC(C)C)N(C)C(=O)[C@@H](C)NC(=O)[C@@H](CCC(N)=O)NC(=O)[C@H](CC(C)C)N(C)C(=O)[C@H](C(C)C)NC(=O)[C@H](CC(C)C)N(C)C(=O)CN(C)C1=O	37%	
CCC[C@@H]1NC(=O)[C@H](CC(C)C)N(C)C(=O)[C@H](CC(C)C)N(C)C(=O)[C@H](CC(C)C)N(C)C(=O)CN(CCOC)C(=O)[C@@H](C)NC(=O)[C@@H](CCC(N)=O)NC(=O)[C@H](CC(C)C)N(C)C(=O)[C@H](C(C)C)NC(=O)[C@H](CC(C)C)N(C)C(=O)CN(C)C1=O	72%	
CCC[C@@H]1NC(=O)[C@H](CC(C)C)N(C)C(=O)[C@H](CC(C)C)N(C)C(=O)CN(Cc2ccccc2)C(=O)[C@H](CC(C)C)N(C)C(=O)[C@@H](C)NC(=O)[C@@H](CCC(N)=O)NC(=O)[C@H](CC(C)C)N(C)C(=O)[C@H](C(C)C)NC(=O)[C@H](CC(C)C)N(C)C(=O)CN(C)C1=O	62%	
CCC[C@@H]1NC(=O)[C@H](CC(C)C)N(C)C(=O)[C@H](CC(C)C)N(C)C(=O)[C@H](CC(C)C)N(C)C(=O)CN(CCO)C(=O)[C@@H](C)NC(=O)[C@@H](CCC(N)=O)NC(=O)[C@H](CC(C)C)N(C)C(=O)[C@H](C(C)C)NC(=O)[C@H](CC(C)C)N(C)C(=O)CN(C)C1=O	59%	
CCC[C@@H]1NC(=O)[C@H](CC(C)C)N(C)C(=O)[C@H](CC(C)C)N(C)C(=O)CN(CCCCN)C(=O)[C@H](CC(C)C)N(C)C(=O)[C@@H](C)NC(=O)[C@@H](CCC(N)=O)NC(=O)[C@H](CC(C)C)N(C)C(=O)[C@H](C(C)C)NC(=O)[C@H](CC(C)C)N(C)C(=O)CN(C)C1=O	57%	
CCC[C@@H]1NC(=O)[C@H](CC(C)C)N(C)C(=O)[C@H](CC(C)C)N(C)C(=O)[C@H](CC(C)C)N(C)C(=O)CN(CCCCN)C(=O)[C@@H](C)NC(=O)[C@@H](CCC(N)=O)NC(=O)[C@H](CC(C)C)N(C)C(=O)[C@H](C(C)C)NC(=O)[C@H](CC(C)C)N(C)C(=O)CN(C)C1=O	69%	
CCC[C@@H]1NC(=O)[C@H](CC(C)C)N(C)C(=O)[C@H](CC(C)C)N(C)C(=O)[C@H](CC(C)C)N(C)C(=O)CN(Cc2ccccc2)C(=O)[C@@H](C)NC(=O)[C@@H](CCC(N)=O)NC(=O)[C@H](CC(C)C)N(C)C(=O)[C@H](C(C)C)NC(=O)[C@H](CC(C)C)N(C)C(=O)CN(C)C1=O	69%	
CCC[C@@H]1NC(=O)[C@H](CC(C)C)N(C)C(=O)[C@H](C(C)C)N(C)C(=O)[C@H](CC(C)C)N(C)C(=O)[C@H](CC(C)C)N(C)C(=O)[C@@H](C)NC(=O)[C@@H](CCC(N)=O)NC(=O)[C@H](CC(C)C)N(C)C(=O)[C@H](C(C)C)NC(=O)[C@H](CC(C)C)N(C)C(=O)CN(C)C1=O	57%	
CCC[C@@H]1NC(=O)[C@H](CC(C)C)N(C)C(=O)[C@H](CC(C)C)N(C)C(=O)[C@H](CC(C)C)N(C)C(=O)[C@H](CC(C)C)N(C)C(=O)[C@@H](C)NC(=O)[C@@H](CCC(N)=O)NC(=O)[C@H](CC(C)C)N(C)C(=O)[C@H](C(C)C)NC(=O)CN(Cc2ccccc2)C(=O)CN(C)C1=O	36%	
CCC[C@@H]1NC(=O)[C@H](CC(C)C)N(C)C(=O)[C@H](C(C)C)N(C)C(=O)[C@H](CC(C)C)N(C)C(=O)[C@H](CC(C)C)N(C)C(=O)[C@@H](C)NC(=O)[C@H](C)NC(=O)[C@H](CC(C)C)N(C)C(=O)[C@H](C(C)C)NC(=O)[C@H](CC(C)C)N(C)C(=O)CN(C)C1=O (cyclo(A[dA][NMeL][NMeL][NMeV][NMeL][Nva][Sar][NMeL]V[NMeL]))	75%	IC50 (Hepatitis B virus [2]): 0.51 µM; CC50 at 24 h [3]: > 200 µM
O=c1cc(-c2ccccc2)oc2c1ccc1ccccc12 [ALPHA-NAPHTHOFLAVONE]		inhibition at 20 min, 10 µM (CYP1A2): 97.1%
CN(C)CCC=C1c2ccccc2CCc2ccccc21 [AMITRIPTYLINE]		inhibition at 20 min, 10 µM (CYP2C19): 92.1%
C/C=C/C[C@@H](C)[C@@H](O)[C@H]1C(=O)N[C@@H](CC)C(=O)N(C)CC(=O)N(C)[C@@H](CC(C)C)C(=O)N[C@@H](C(C)C)C(=O)N(C)[C@@H](CC(C)C)C(=O)N[C@@H](C)C(=O)N[C@H](C)C(=O)N(C)[C@@H](CC(C)C)C(=O)N(C)[C@@H](CC(C)C)C(=O)N(C)[C@@H](C(C)C)C(=O)N1C [CYCLOSPORINE]	83%	IC50 (Hepatitis B virus [2]): 0.4 µM
C=C[C@H]1C[N@@]2CC[C@H]1C[C@@H]2[C@@H](O)c1ccnc2ccc(OC)cc12 [QUINIDINE]		inhibition at 20 min, 10 µM (CYP2D6): 97.5%
Nc1ccc(S(=O)(=O)Nc2ccnn2-c2ccccc2)cc1 [SULFAPHENAZOLE]		inhibition at 20 min, 10 µM (CYP2C9): 94.4%
